Converted amounts (≈) assume the structure as drawn.
Assays:
[1] = system: Plasmopara viticola; assay: Direct protectant activity against vine downy mildew (Pvp); assay type: in vivo; set-up: Pvp: direct protectant activity against vine downy mildew: scale not given here; settings: foliar spray, 1 kg/ha; activity grade 1 or 2, not defined
Excerpt: (a) Direct Protectant Activity Against Vine Downy Mildew (Plasmopara viticola; Pvp)
The test is a direct protectant one, using a foliar spray. The lower surfaces of leaves of whole vine plants (cv Cabernet Sauvignon) are sprayed with a solution of active material in 1:1 v/v water/acetone containing 0.04% w "Triton X-155" (trade mark) (octylphenol polyoxyethylene surfactant), at a dosage of 1 kilogram of active material per hectare using a track sprayer which delivers 620 liters/ha, and after a subsequent 24 hours under normal glasshouse conditions the lower surfaces of the leaves are inoculated by spraying with an aqueous solution containing 10^4 zoosporangia/ml. The inoculated plants are kept for 24 hours in a high humidity compartment, 5 days under normal glasshouse conditions and then returned for a further 24 hours to high humidity. Assessment is based on the percentage of leaf area covered by sporulation compared with that on control leaves.

[2] = system: Erysiphe graminis f.sp. hordei; assay: Direct antisporulant activity against barley powdery mildew (Eg); assay type: in vivo; set-up: scale not given here; settings: foliar spray, 1 kg/ha; activity grade 1 or 2, not defined
Excerpt: (f) Activity Against Barley Powdery Mildew (Erysiphe graminis f.sp. hordei; Eg) The test is a direct antisporulant one, using a foliar spray. Leaves of barley seedlings, cultivar Golden Promise, are inoculated by dusting with mildew conidia one day prior to treatment with the test compound. The inoculated plants are kept overnight at glasshouse ambient temperature and humidity prior to treatment. […] After drying, plants are returned to a compartment at ambient temperature and humidity for up to 7 days, followed by assessment. Assessment is based on the percentage of leaf area covered by sporulation compared with that on leaves of control plants.

[3] = system: Staphylococcus aureus; assay: Minimum inhibitory concentration, Staphylococcus aureus (Sa); assay type: cell-based, Staphylococcus aureus (NCIB 6571); settings: 30° C., 24 and 72 hours
Procedure: (§1) In respect of S. aureus, B. subtilis and E. coli, the microorganisms were cultured in 50 ml aliquots of a tryptone soya broth in 250 ml conical flasks at 30° C. on a rotary shaker at 200 rpm for 24 hours. Tryptone soya broth was prepared by adding 17 g pancreatic digest of casein, 3 g […] digest of soyabean meal, 5 g of sodium chloride, 2.5 g of dipotassium hydrogen phosphate and 2.5 g of dextrose to 1 liter of distilled water, mixing and sterilising by autoclaving at 121° C. for 15 minutes. 1 ml aliquots of the resulting cultures were mixed with 99 ml of fresh tryptone soya broth and used as inocula for tests. […] Test procedures were as follows: (ii) Dilution Series for Other Test Bacteria, Yeast and Filamentous Fungi Dilution series from the stock solution of each compound were prepared in sterile distilled water. These contained 50, 100, 500 and 1000 ppm compound. To duplicate wells of a compartmentalised square petri dish 0.3 ml of each test compound concentration was added together with 2.7 ml of one of the microbial inocula described above. […] After incubation, in the dark, at 30° C. the wells were examined for the presence or absence of growth. Bacterial and yeast cultures were examined after 24 hours and 72 hours incubation and the fungi cultures after 3, 7 and 10 days. By means of the above tests minimum inhibitory concentrations were determined for the various test compounds.

[4] = system: Bacillus subtilis; assay: Minimum inhibitory concentration, Bacillus subtilis (Bs); assay type: cell-based; settings: 30° C., 24 and 72 hours
Procedure: as §1

[5] = system: Escherichia coli; assay: Minimum inhibitory concentration, Escherichia coli (Ec); assay type: cell-based, Escherichia coli (NCIB 9517); settings: 30° C., 24 and 72 hours
Procedure: as §1

[6] = system: Desulfovibrio sp.; assay: Minimum inhibitory concentration, sulphate-reducing bacteria (Dsp); assay type: cell-based; settings: 30° C., 2, 5 and 10 days
Procedure: The sulphate reducing bacteria Desulfovibrio sp. were cultured in a modified Postgate's Medium B for 48 hours at 30° C. and used directly as an inoculum. The modified Postgate's Medium B consisted of 0.5 g dipotassium hydrogen phosphate, 1 g ammonium chloride, 1 g sodium sulphate, 5 g sodium lactate, 1 g yeast extract, 0.1 ml thioglycolic acid, 0.1 ml ascorbic acid, 0.5 g ferrous sulphate heptahydrate, 750 ml aged seawater and 250 ml distilled water, pH adjusted to 7.8, divided into aliquots and sterilised by autoclaving at 121° C. for 15 minutes. […] Test procedures were as follows: (i) Suphate-reducing Bacteria Test Dilution Series Duplicate aliquots (9.9 ml) of dilution series from the stock solutions of each compound were prepared in a modified Postgate's Medium B described above. These contained 100 ppm compound. These were then inoculated with 0.1 ml of inoculum. After incubation at 30° C., the presence or absence of growth--as indicated by a blackening of the medium due to ferrous sulphide production--was recorded at 2, 5 and 10 days. […] By means of the above tests minimum inhibitory concentrations were determined for the various test compounds.

[7] = system: Saccharomyces cerevisiae; assay: Minimum inhibitory concentration, yeast (Sc); assay type: cell-based, Saccharomyces cerevisiae (ATCC 9763); settings: 30° C., 24 and 72 hours
Procedure: Inocula of S. cerevisiae were prepared as for S. aureus, B. subtilis and E. coli, but using yeast malt broth in place of the typtone soya broth. The yeast malt broth was prepared by suspending 3 g yeast extract, 3 g malt extract, 5 g peptone and 10 g dextrose in 1 liter of distilled water, warming to achieve solution and sterilising by autoclaving at 121° C. for 15 minutes.
(§2) Test procedures were as follows:
(§3) (ii) Dilution Series for Other Test Bacteria, Yeast and Filamentous Fungi
(§4) Dilution series from the stock solution of each compound were prepared in sterile distilled water. These contained 50, 100, 500 and 1000 ppm compound. To duplicate wells of a compartmentalised square petri dish 0.3 ml of each test compound concentration was added together with 2.7 ml of one of the microbial inocula described above. This gave final concentrations of the test compound of 5, 10, 50 and 100 ppm.
(§5) After incubation, in the dark, at 30° C. the wells were examined for the presence or absence of growth. Bacterial and yeast cultures were examined after 24 hours and 72 hours incubation and the fungi cultures after 3, 7 and 10 days.
(§6) By means of the above tests minimum inhibitory concentrations were determined for the various test compounds.

[8] = system: Aspergillus niger; assay: Minimum inhibitory concentration, Aspergillus niger (An); assay type: cell-based, Aspergillus niger (CMI 17454); settings: 30° C., 3, 7 and 10 days
Procedure: (§7) Inocula of the fungi Aspergillus niger, Cladosporium resinae and Chaetomium globosum were prepared containing 5×10^5 conidia/ml in a potato dextrose broth. The potato dextrose broth was prepared by suspending 4 g potato extract and 20 g dextrose in 1 liter of distilled water, warming to achieve solution, separating into aliquots and sterilising by autoclaving at 121° C. for 15 minutes.
as §2, §3, §4, §5, §6

[9] = system: Cladosporium resinae; assay: Minimum inhibitory concentration, Cladosporium resinae (Cr); assay type: cell-based; settings: Amorphotheca resinae, 30° C., 3, 7 and 10 days
Procedure: as §7, §2, §3, §4, §5, §6

[10] = system: Chaetomium globosum; assay: Minimum inhibitory concentration, Chaetomium globosum (Chg); assay type: cell-based; settings: 30° C., 3, 7 and 10 days
Procedure: as §7, §2, §3, §4, §5, §6

[11] = system: Pseudocercosporella herpotrichoides; assay: In vitro activity against wheat eyespot (Ph); assay type: cell-based; set-up: Ph: activity against wheat eyespot: scale not given here; settings: in vitro, 100 ppm in agar, 11 days; activity grade 1 or 2, not defined
Procedure: (c) Activity Against Wheat Eyespot (Pseudocercosporella herpotrichoides; Ph)
The test is an in vitro one. Samples are prepared wherein 0.7 mls solution containing 2 mg active material dissolved in acetone is evenly dispersed in 20 ml molten half-strength potato dextrose agar (formed by dissolving 2 g potato extract, 10 g dextrose and 7.5 g agar in 1 liter of water and sterilising for 15 minutes and 121° C.) and the resulting 20 ml portions are allowed to set in 9 cm petri dishes. The concentration of active material in the resulting samples is 100 ppm. Upon setting, two plugs of 5 mm diameter taken from the advancing edge of a stock plate of a 3 to 4 week old culture of P.herpotrichoides on full strength potato dextrose agar, incubated at 20°-22° C. in darkness, are placed, equally spaced on the surface of each sample, mycelial side uppermost. The samples are incubated for 11 days at 20°-22° C. in darkness before assessment. Diametric growth is measured with the width of the plug subtracted and results compared with growth on a sample wherein 0.7 ml acetone containing no active material is dispersed in 20 ml half-strength potato agar.

[12] = system: Fusarium culmorum; assay: Activity against seedling wheat blight, soil drench (Fs); assay type: in vivo; set-up: scale not given here; settings: 10 kg/ha, 21 days, activity grade 1 or 2, not defined
Procedure: (d) Activity Against Seedling Wheat Blight (Fusarium culmorum; Fs)
The test is an anti-sporulant one using a soil drench. Surface sterilised wheat seeds (var Waggoner) are inoculated by soaking in an aqueous suspension containing 7×10^5 spores/ml (60 mg seed per 80 ml suspension) at 22° C. for 6 hours. The seeds are then sown in pots (5 per pot) in sand at a depth of 1 cm. 1 day after inoculation and planting the active material is applied at a rate of 10 kg/ha by pouring on a soil drench (concentration 0.36 g/l active material in 12% v/v acetone/water) evenly over the sand. The pots are then transferred to a glasshouse, kept at 25° C. and watered sparingly. 21 days after inoculation the resulting seedlings are removed from the pots and their roots are gently washed. Visual assessment is made based on lesion development on stem base and upper roots in comparison with control seedlings.

| MIC [3] [µg/mL] | MIC [4] [µg/mL] | MIC [5] [µg/mL] | MIC [6] [µg/mL] | MIC [7] [µg/mL] | MIC [8] [µg/mL] | MIC [9] [µg/mL] | MIC [10] [µg/mL] | SMILES | Pvp: direct protectant activity against vine downy mildew [1] | Eg: activity against barley powdery mildew [2] | Ph: activity against wheat eyespot [11] | Fs: activity against seedling wheat blight [12] |
| --- | --- | --- | --- | --- | --- | --- | --- | --- | --- | --- | --- | --- |
|  |  |  |  |  |  |  |  | COC(=O)N=[N+]([O-])c1cc(C)cc2c1OC(C)(C)C2 [Example 44] | 1 | 2 |  |  |
|  |  |  |  |  |  |  |  | CCOC(=O)N=Nc1cc(C)c(Cl)c2c1OC(C)CC2 (stereo not drawn) [Example 42] |  | 2 |  |  |
|  |  |  |  |  |  |  |  | COC(=O)N=Nc1cc(C)cc2c1OC(C)(C)C2 [Example 32] | 1 |  |  |  |
| > 100 | 50 to 100 (≈ 249 to 497 µM) | > 100 | 100 (≈ 497 µM) | 25 (≈ 124 µM) | 10 to 25 (≈ 49.7 to 124 µM) | 25 to 50 (≈ 124 to 249 µM) | 25 (≈ 124 µM) | N#CN=[N+]([O-])c1ccc2c(c1)C=CCO2 [Example 28] |  |  |  |  |
| > 100 | > 100 | > 100 | 100 (≈ 460 µM) | 50 (≈ 230 µM) | 10 (≈ 46 µM) | 25 (≈ 115 µM) | < 5 | CC1CCc2cccc([N+]([O-])=NC#N)c2O1 (stereo not drawn) [Example 14] |  |  | 2 |  |
|  |  |  |  |  |  |  |  | C#CCOC(=O)N=Nc1cc(C)c(Cl)c2c1OC(C)CC2 (stereo not drawn) [Example 41] | 1 | 1 |  |  |

| SMILES | MIC [3] [µg/mL] | MIC [4] [µg/mL] | MIC [5] [µg/mL] | MIC [6] [µg/mL] | MIC [7] [µg/mL] | MIC [8] [µg/mL] | MIC [9] [µg/mL] | MIC [10] [µg/mL] | Pvp: direct protectant activity against vine downy mildew [1] | Eg: activity against barley powdery mildew [2] | Ph: activity against wheat eyespot [11] | Fs: activity against seedling wheat blight [12] |
| --- | --- | --- | --- | --- | --- | --- | --- | --- | --- | --- | --- | --- |
| CC1(C)CCc2cc(Cl)cc([N+]([O-])=NC#N)c2O1 [Example 15] | > 100 | 100 (≈ 376 µM) | > 100 | > 100 | 50 (≈ 188 µM) | 10 (≈ 37.6 µM) | > 100 | > 100 |  |  | 2 | 2 |

— patent publication US5376679A, “Bicyclic or tricyclic biocidal compounds” (Shell Internationale Research Maatschappij B.V., priority 1988, dated 1994)
